In series [1] the test system is Vero (African Green Monkey Kidney) cells. Description: Minimum concentration killing the Vero cell monolayer, read in the plaque reduction test. In kind it is cell-based. As to conditions: minimum concentration which killed the cell monolayer; virus-infected Vero cells, 6 days at 37°C. How it is done:
(§1) Vero (African Green Monkey Kidney) cells were grown to confluence in 6 well multidishes, each well being 3.5 cm in diameter. The cells were incubated with Herpes simplex type 1 virus (HFEM strain) and overlaid with 0.5 mL of 0.9% agarose (w/v) in maintenance medium containing the test compound at a range of concentrations from 3 µg/mL in half-log dilution steps. The virus infected cultures were then incubated at 37 °C for 6 days before fixing in 4% formaldehyde solution and staining with carbolfuchsin. The dishes were then examined to find what concentration of test compound causing a 50% reduction in the number of virus plaques formed (PDD50 value) and the minimum concentration of test compound which killed the cell monolayer, leaving a clear zone devoid of cells and virus plaques (MTD).

Series [2] relates to Herpes simplex type 1 virus (HFEM strain). The series is described as follows: Plaque reduction test in Vero cells infected with Herpes simplex type 1 virus. To be noted: for PDD50: concentration causing a 50% reduction in the number of virus plaques. In kind it is cell-based. Here is the method:
as §1

Where [3] appears, read: same PDD50 values given in µM, 6 days at 37°C, read-out: PDD50 (the source's name).

Structures can show the parent of a compound that is named as a salt. Where two headings read alike, the source gives them in different places. A value given as a limit tells only on which side of the number the result lay.

The compound `CC(C)C[C@H](N)C(=O)OC[C@H]1O[C@@H](n2cc(/C=C/Br)c(=O)[nH]c2=O)C[C@@H]1OC(=O)[C@@H](N)CC(C)C` [Example 18, E-5-(2-bromovinyl)-3',5'-di-L-leucyl-2'-deoxyuridine bis bisulphate salt] registered an MTD in series [1] above 100 µg/mL. The compound also gave a PDD50 in series [2] (6 days at 37°C) of 0.28 µg/mL. The IC50 in series [2] (read-out: PDD50, same PDD50 values given in µM, 6 days at 37°C) worked out at 0.37 µM.

With `NC(Cc1ccccc1)C(=O)OC[C@H]1O[C@@H](n2cc(/C=C/Br)c(=O)[nH]c2=O)C[C@@H]1OC(=O)C(N)Cc1ccccc1` (stereo partly drawn) [Example 7, E-5-(2-Bromovinyl)-3',5'-di-O-phenylalanyl-2'-deoxyuridine bis trifluoroacetate], the MTD in series [1] is above 100 µg/mL. In series [2] (6 days at 37°C, bis trifluoroacetate), the PDD50 amounted to 0.14 µg/mL. For the same compound, the IC50 in series [2] (read-out: PDD50, same PDD50 values given in µM, 6 days at 37°C, bis trifluoroacetate) is 0.16 µM.

In the case of “E-5-(2-bromovinyl)-3',5'-di-L-lysyl-2'-deoxyuridine tetrakis trifluoroacetate dihydrate [Example 40]”, the MTD in series [1] is recorded as above 100 µg/mL. The same compound yielded a PDD50 in series [2] (6 days at 37°C) of 0.19 µg/mL. For the same compound, the IC50 in series [2] (setting [3]) worked out at 0.18 µM.

“E-5-(2-Bromovinyl)-3',5'-di-glycyl-2'-deoxyuridine bis bisulphate [Example 17]” registered an MTD in series [1] above 100 µg/mL. The PDD50 in series [2] (6 days at 37°C) is 0.49 µg/mL. The IC50 in series [2] (setting [3]) amounted to 0.76 µM.

For “E-5-(2-Bromovinyl)-5'-O-phenylalanyl-2'-deoxyuridine trifluoroacetate [Example 9]”, the MTD in series [1] is above 100 µg/mL. The PDD50 in series [2] (6 days at 37°C) worked out at 0.19 µg/mL. In series [2] (setting [3]), the IC50 is 0.32 µM.

These data come from EP0080305A1, “Antiviral 2'-deoxyuridines, their preparation and use” (BEECHAM GROUP PLC, priority 1981, dated 1983).
